Reference: US20090118274A1, “MONOCYCLIC AMINOPROPYL TETRAHYDRO-PYRAZOLO-PYRIDINE MODULATORS OF CATHEPSIN S” (priority 2007, published 2009)
Like-named read-outs stand apart in the source and are kept apart here.

Molecular target: T1, Recombinant human cathepsin S (CatS) (Homo sapiens, UniProt P25774)
T1 construct: made in house
Experiment: Recombinant human cathepsin S (CatS) fluorogenic substrate inhibition assay
Format: biochemical
Description: Recombinant human cathepsin S (CatS) was expressed in the baculovirus system and purified in one step with a thiopropyl-sepharose column. […] The assay is run in 150 mM sodium acetate pH 5.0 containing 1.5 mM DTT and 150 mM NaCl. […] Measurements are taken every min for 20 min. The rate is calculated from the slope of the increase in fluorescence and the percent inhibition is calculated from this.

[1] = average of results obtained, substrate Z-Valine-Valine-Arginine-AMC 10 μM, pH 5.0, read-out: CatS IC50

T1 sequence (P25774 115-331): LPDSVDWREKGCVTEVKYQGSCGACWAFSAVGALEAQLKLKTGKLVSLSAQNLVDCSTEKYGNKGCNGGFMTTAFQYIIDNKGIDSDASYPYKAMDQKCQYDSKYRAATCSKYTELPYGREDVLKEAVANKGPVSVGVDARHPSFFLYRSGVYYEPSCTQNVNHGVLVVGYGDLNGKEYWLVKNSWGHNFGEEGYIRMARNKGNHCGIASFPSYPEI

Row | IC50 [1] [nM] | IC50 [nM] | SMILES
1 | 13500 | – | Cc1nc2ccccc2c(=O)n1Cc1cc(-c2nn(CCCN3CCC4(CCNC4=O)CC3)c3c2CN(S(C)(=O)=O)CC3)ccc1C(F)(F)F [Example 174, 3-(5-{5-Methanesulfonyl-1-[3-(1-oxo-2,8-diaza-spiro[4.5]dec-8-yl)-propyl]-4,5,6,7-tetrahydro-1H-pyrazolo[4,3-c]pyridin-3-yl}-2-trifluoromethyl-benzyl)-2-methyl-3H-quinazolin-4-one]
2 | 1320 | – | CS(=O)(=O)N1CCc2c(c(-c3ccc(Cl)c(COC(=O)c4ccc(F)cc4)c3)nn2CCCN2CCCC2)C1 [Example 3, 4-Fluoro-benzoic acid 2-chloro-5-[5-methanesulfonyl-1-(3-pyrrolidin-1-yl-propyl)-4,5,6,7-tetrahydro-1H-pyrazolo[4,3-c]pyridin-3-yl]-benzyl ester]
3 | 500 | – | CS(=O)(=O)N1CCc2c(c(-c3ccc(C(F)(F)F)c(CNC(=O)C4CCCCC4)c3)nn2CC(O)CN2CCCC2)C1 (centres unmarked) [Example 168, Cyclohexanecarboxylic acid 5-[1-(2-hydroxy-3-pyrrolidin-1-yl-propyl)-5-methanesulfonyl-4,5,6,7-tetrahydro-1H-pyrazolo[4,3-c]pyridin-3-yl}-2-trifluoromethyl-benzylamide]
4 | 460 | – | CC(C)=CC(=O)NCc1cc(-c2nn(CC(O)CN3CCC(N(C)C)C3)c3c2CN(S(C)(=O)=O)CC3)ccc1C(F)(F)F (centres unmarked) [Example 33, 3-Methyl-but-2-enoic acid 5-{1-[3-(3-dimethylamino-pyrrolidin-1-yl)-2-hydroxy-propyl]-5-methanesulfonyl-4,5,6,7-tetrahydro-1H-pyrazolo[4,3-c]pyridin-3-yl}-2-trifluoromethyl-benzylamide]
5 | 220 | – | CS(=O)(=O)N1CCc2c(c(-c3ccc(C(F)(F)F)c(CNC(=O)c4ccccc4Cl)c3)nn2CC(O)CN2CCCC2)C1 (centres unmarked) [Example 62, 2-Chloro-N-{5-[1-(2-hydroxy-3-pyrrolidin-1-yl-propyl)-5-methanesulfonyl-4,5,6,7-tetrahydro-1H-pyrazolo[4,3-c]pyridin-3-yl]-2-trifluoromethyl-benzyl}-benzamide]
6 | 240 | – | CS(=O)(=O)N1CCc2c(c(-c3ccc(C(F)(F)F)c(CNC(=O)c4ccccc4O)c3)nn2CCCN2CCC3(CCNC3=O)CC2)C1 [Example 150, 2-Hydroxy-N-(5-{5-methanesulfonyl-1-[3-(1-oxo-2,8-diaza-spiro[4.5]dec-8-yl)-propyl]-4,5,6,7-tetrahydro-1H-pyrazolo[4,3-c]pyridin-3-yl}-2-trifluoromethyl-benzyl)-benzamide]
7 | 330 | – | CC1CCCN1CC(O)Cn1nc(-c2ccc(C(F)(F)F)c(CNC(=O)c3ccc(F)cc3)c2)c2c1CCN(S(C)(=O)=O)C2 (centres unmarked) [Example 100, 4-Fluoro-N-(5-{1-[2-hydroxy-3-(2-methyl-pyrrolidin-1-yl)-propyl]-5-methanesulfonyl-4,5,6,7-tetrahydro-1H-pyrazolo[4,3-c]pyridin-3-yl}-2-trifluoromethyl-benzyl)-benzamide]
8 | 440 | – | CS(=O)(=O)N1CCc2c(c(-c3ccc(C(F)(F)F)c(CNC(=O)c4ccc(N)cc4)c3)nn2CC(O)CN2CCCC2)C1 (centres unmarked) [Example 165, 4-Amino-N-{5-[1-(2-hydroxy-3-pyrrolidin-1-yl-propyl)-5-methanesulfonyl-4,5,6,7-tetrahydro-1H-pyrazolo[4,3-c]pyridin-3-yl]-2-trifluoromethyl-benzyl}-benzamide]
9 | 40 | – | NC(=O)N1CCc2c(c(-c3ccc(C(F)(F)F)c(CNC(=O)c4ccc(F)cc4)c3)nn2CC(O)CN2CCC3(CCNC3=O)CC2)C1 (centres unmarked) [Example 9, 3-{3-[(4-Fluoro-benzoylamino)-methyl]-4-trifluoromethyl-phenyl}-1-[2-hydroxy-3-(1-oxo-2,8-diaza-spiro[4.5]dec-8-yl)-propyl]-1,4,6,7-tetrahydro-pyrazolo[4,3-c]pyridine-5-carboxylic acid amide]
10 | 90 | – | CC(C)CC(=O)NCc1cc(-c2nn(CC(O)CN3CCC(C(C)(C)C)CC3)c3c2CN(S(C)(=O)=O)CC3)ccc1C(F)(F)F (centres unmarked) [Example 289, N-(5-{1-[3-(4-tert-Butyl-piperidin-1-yl)-2-hydroxy-propyl]-5-methanesulfonyl-4,5,6,7-tetrahydro-1H-pyrazolo[4,3-c]pyridin-3-yl}-2-trifluoromethyl-benzyl)-3-methyl-butyramide]
11 | 260 | – | CS(=O)(=O)N1CCc2c(c(-c3ccc(C(F)(F)F)c(CNC(=O)c4ccc(O)cc4)c3)nn2CC(O)CN2CCCC2)C1 (centres unmarked) [Example 156, 4-Hydroxy-N-{5-[1-(2-hydroxy-3-pyrrolidin-1-yl-propyl)-5-methanesulfonyl-4,5,6,7-tetrahydro-1H-pyrazolo[4,3-c]pyridin-3-yl]-2-trifluoromethyl-benzyl}-benzamide]
12 | – | 200 | CS(=O)(=O)N1CCc2c(c(-c3ccc(Cl)c(CNC(=O)c4ccc(F)cc4)c3)nn2CC(O)CN2CCC2)C1 (centres unmarked) [Example 73, N-{5-[1-(3-Azetidin-1-yl-2-hydroxy-propyl)-5-methanesulfonyl-4,5,6,7-tetrahydro-1H-pyrazolo[4,3-c]pyridin-3-yl]-2-chloro-benzyl}-4-fluoro-benzamide]
13 | 150 | – | CS(=O)(=O)N1CCc2c(c(-c3ccc(C(F)(F)F)c(CNC(=O)c4ccc(F)cc4)c3)nn2CC(O)CN2CCOCC2)C1 (centres unmarked) [Example 23, 4-Fluoro-N-{5-[1-(2-hydroxy-3-morpholin-4-yl-propyl)-5-methanesulfonyl-4,5,6,7-tetrahydro-1H-pyrazolo[4,3-c]pyridin-3-yl]-2-trifluoromethyl-benzyl}-benzamide]
14 | 4850 | – | CN(C)C(=O)CCc1cc(-c2nn(CCCN3CCOCC3)c3c2CN(S(C)(=O)=O)CC3)ccc1Cl [Example 295, 3-{2-Chloro-5-[5-methanesulfonyl-1-(3-morpholin-4-yl-propyl)-4,5,6,7-tetrahydro-1H-pyrazolo[4,3-c]pyridin-3-yl]-phenyl}-N,N-dimethyl-propionamide]
15 | 970 | – | CS(=O)(=O)N1CCc2c(c(-c3ccc(Cl)c(CNC(=O)c4cccs4)c3)nn2CCCN2CCCC2)C1 [Example 241, Thiophene-2-carboxylic acid 2-chloro-5-[5-methanesulfonyl-1-(3-pyrrolidin-1-yl-propyl)-4,5,6,7-tetrahydro-1H-pyrazolo[4,3-c]pyridin-3-yl]-benzylamide]
16 | 410 | – | CS(=O)(=O)N1CCc2c(c(-c3ccc(Cl)c(CNC(=O)c4cc5ccccc5s4)c3)nn2CCCN2CCCC2)C1 [Example 164, Benzo[b]thiophene-2-carboxylic acid 2-chloro-5-[5-methanesulfonyl-1-(3-pyrrolidin-1-yl-propyl)-4,5,6,7-tetrahydro-1H-pyrazolo[4,3-c]pyridin-3-yl]-benzylamide]
17 | 160 | – | CS(=O)(=O)N1CCc2c(c(-c3ccc(C(F)(F)F)c(CNC(=O)c4ccc(F)cc4)c3)nn2CC(O)CN2CCC(CCO)CC2)C1 (centres unmarked) [Example 91, 4-Fluoro-N-[5-(1-{2-hydroxy-3-[4-(2-hydroxy-ethyl)-piperidin-1-yl]-propyl}-5-methanesulfonyl-4,5,6,7-tetrahydro-1H-pyrazolo[4,3-c]pyridin-3-yl)-2-trifluoromethyl-benzyl]-benzamide]
18 | 30 | – | CC(C)(C)OC(=O)NC1CCN(CC(O)Cn2nc(-c3ccc(Cl)c(CNC(=O)c4ccc(F)cc4)c3)c3c2CCN(S(C)(=O)=O)C3)CC1 (centres unmarked) [Example 78, {1-[3-(3-{4-Chloro-3-[(4-fluoro-benzoylamino)-methyl]-phenyl}-5-methanesulfonyl-4,5,6,7-tetrahydro-pyrazolo[4,3-c]pyridin-1-yl)-2-hydroxy-propyl]-piperidin-4-yl}-carbamic acid tert-butyl ester]
19 | 30 | – | CC(C)=CC(=O)NCc1cc(-c2nn(CC(O)CN3CCC(NS(C)(=O)=O)CC3)c3c2CN(S(C)(=O)=O)CC3)ccc1C(F)(F)F (centres unmarked) [Example 269, 3-Methyl-but-2-enoic acid 5-{1-[2-hydroxy-3-(4-methanesulfonylamino-piperidin-1-yl)-propyl]-5-methanesulfonyl-4,5,6,7-tetrahydro-1H-pyrazolo[4,3-c]pyridin-3-yl}-2-trifluoromethyl-benzylamide]
20 | 16500 | – | CNC(=O)CCc1cc(-c2nn(CCCN3CCOCC3)c3c2CN(S(C)(=O)=O)CC3)ccc1Cl [Example 294, 3-{2-Chloro-5-[5-methanesulfonyl-1-(3-morpholin-4-yl-propyl)-4,5,6,7-tetrahydro-1H-pyrazolo[4,3-c]pyridin-3-yl]-phenyl}-N-methyl-propionamide]
21 | 270 | – | CS(=O)(=O)N1CCc2c(c(-c3ccc(C(F)(F)F)c(CNC(=O)c4cc5ccccc5s4)c3)nn2CC(O)CN2CCC3(CCNC3=O)CC2)C1 (centres unmarked) [Example 157, Benzo[b]thiophene-2-carboxylic acid 5-{1-[2-hydroxy-3-(1-oxo-2,8-diaza-spiro[4.5]dec-8-yl)-propyl]-5-methanesulfonyl-4,5,6,7-tetrahydro-1H-pyrazolo[4,3-c]pyridin-3-yl}-2-trifluoromethyl-benzylamide]
22 | – | 450 | CC(C)CC(=O)NCc1cc(-c2nn(CC(O)CN3CCC(N(C)C)C3)c3c2CN(S(C)(=O)=O)CC3)ccc1C(F)(F)F (centres unmarked) [Example 249, N-(5-{1-[3-(3-Dimethylamino-pyrrolidin-1-yl)-2-hydroxy-propyl]-5-methanesulfonyl-4,5,6,7-tetrahydro-1H-pyrazolo[4,3-c]pyridin-3-yl}-2-trifluoromethyl-benzyl)-3-methyl-butyramide]
23 | 260 | – | CC(C)=CC(=O)NCc1cc(-c2nn(CC(O)CN3CCC(N(C)C)CC3)c3c2CN(S(C)(=O)=O)CC3)ccc1C(F)(F)F (centres unmarked) [Example 34, 3-Methyl-but-2-enoic acid 5-{1-[3-(4-dimethylamino-piperidin-1-yl)-2-hydroxy-propyl]-5-methanesulfonyl-4,5,6,7-tetrahydro-1H-pyrazolo[4,3-c]pyridin-3-yl}-2-trifluoromethyl-benzylamide]
